How the values were obtained:
[1] = tested on: rabbit corneal endothelial cells; experiment: Production of cultured corneal endothelial cell sheet for transplantation, ZO-1 and Na+/K+ ATPase immunostaining (Example 7); type: cell-based; conditions: for coverage of the sheet with cells / expression of Na+/K+ ATPase / expression of ZO-1: 48 hours after seeding
Method: In this Example, rabbit corneal endothelial cells prepared in the same manner as in Example 4 were used.
In this Example, moreover, test substances and control substance prepared in the same manner as in Example 4 were used.
The rabbit corneal endothelial cells were seeded on Vitrigel™ (Asahi Glass) at a division ratio of 1:1, and a cultured corneal endothelial cell sheet for transplantation was produced. When producing the corneal endothelial cell sheet, 0.95 μM compound (I), 10 μM Y-27632 or 0.04% DMSO was added. The obtained corneal endothelial cell sheet was subjected to fluorescence immunostaining with ZO-1 and Na^+/K^+ ATPase, which are functional proteins of corneal endothelial cells, and expression was confirmed.
The corneal endothelial cell sheet was fixed with 95% ethanol (−30° C.) for 10 min, washed with PBS, and treated with 0.5% Triton X-100/PBS for 5 min. Then, it was treated with 1% BSA/PBS for 1 hour, and treated overnight with anti-ZO-1 antibody (Invitrogen, Cat. #339100) or anti-Na^+/K^+ ATPase antibody (Millipore, Cat. #C464.6). After washing with PBS, it was treated with Alexa-488 labeling secondary antibody for 1 hour. After washing with PBS, mounting medium (Vectashield (registered trade mark)) containing DAPI was added dropwise to the sheet, and the sheet was sealed with cover glass. The image was taken with a fluorescence microscope to confirm expression of ZO-1 and Na^+/K^+ ATPase. The immunostaining was performed both 48 hours and 14 days after the seeding (FIG. 10 and FIG. 11).

[2] = tested on: rabbit corneal endothelial cells; experiment: In vitro wound healing model of rabbit corneal endothelial cells (Example 9); type: cell-based
Method: In this Example, test substances and control substance prepared in the same manner as in Example 4 were used. Corneoscleral tissue was collected from 10 rabbit eyeballs purchased from Funakoshi Corporation. The corneoscleral tissue was immersed in DMEM (Invitrogen, Cat. #12320-032) containing 1% penicillin/streptomycin (Invitrogen, Cat. #15140-122), and incubated at 37° C. for 1 hour. The Descemet's membrane was stripped together with intact corneal endothelial cells, immersed in a culture medium (DMEM, 10% FBS, 2 ng/mL bFGF (Invitrogen, Cat. #13256-029), 1% penicillin/streptomycin) containing 2 mg/mL Collagenase A (Roche, Cat. #1088793), and incubated at 37° C. for 2 hours. The cells were collected by centrifugation, washed with the culture medium, and seeded in a T25 flask (Corning Incorporated, Cat. #430639) coated with FNC coating mix (Athena ES, Cat. #0407). The flask were left standing in a 5% CO2 incubator at 37° C., the medium was exchanged every 2-3 days, and the cells were cultured to confluent. The cells that reached confluent were collected, seeded in two 6 well plates (Falcon, Cat. #3046) coated with FNC coating mix, and cultured to confluent. The prepared rabbit corneal endothelial cells were collected, seeded in a 6 well plate at a division ratio of 1:4, and cultured to confluent in the same culture medium as in the above-mentioned (1). Linear wound was created in the confluent cells using 1000 μL chip (6 wounds per well). After creating the linear wounds, the culture medium was exchanged, and 0.95 μM, 1.58 μM and 3.16 μM compound (I), 10 μM Y-27632 and 0.04% DMSO were added. Compound (I) and Y-27632 were dissolved in DMSO in advance, where the DMSO concentration was adjusted to 0.04% for both. The width of the wound at 0, 6, 12 and 24 hours after the addition was photographed over time. The wound width was measured by Image-Pro plus (Media Cybernetics, Inc.). The ratio of wound width at each hour was calculated by taking that at 0 hour after the addition of medicament as 100%, and the time-course changes of the ratio of wound width were evaluated. The ratio of wound width was applied to statistical analysis according to the Dunnett's test at each time point.

corneoscleral tissues = experiment: Cell death suppression in cornea preserved in corneal storage solution (Example 10); type: cell-based, rabbit; conditions: 4° C.
Method: In this Example, test substances and control substances prepared in the same manner as in Example 4 were used. Both right and left eyeballs of 5 male Japanese white rabbits (Biotek Co., Ltd.) were removed, and corneoscleral tissues were prepared. One corneoscleral tissue was placed in a storage solution Optisol-GS (registered trade mark) (Bausch & Lomb, Inc) (control), and the other corneoscleral tissue was placed in Optisol-GS containing 0.95 μM compound (I). Similarly, corneoscleral tissues were prepared from another 5 male Japanese white rabbits, one corneoscleral tissue was placed in Optisol-GS (control), and the other corneoscleral tissue was placed in Optisol-GS containing 10 μM Y-27632. The samples containing each corneoscleral tissue were preserved at 4° C. Two or three weeks later, the corneoscleral tissues were stained with Hoechst (Hoechst 33342, Sigma, Cat. #B2261), PI (propidium iodide, Sigma, Cat. #P4170) and Annexin V (Annexin V-FITC, MBL, Cat. #4700-100), and the cells therein were indentified as living cells, dead cells and apoptotic cells. In addition, the various cells in the stained cornea were counted using ImageJ (ver.1.44i, NIH, http://imagej.nih.gov/ij), and the mean value and the standard deviation of 5 visual fields were determined. The various cell counts were statistically analyzed by the student's t-test.

SMILES | coverage of the sheet with cells ([1]; 10 μM) | expression of Na+/K+ ATPase ([1]; 10 μM) | expression of ZO-1 ([1]; 10 μM) | ratio of wound width versus control ([2]; 10 μM, 24 hours after addition) | number of dead cells versus control (corneoscleral tissues; 10 μM in Optisol-GS) | coverage of the sheet with cells ([1]; 0.95 μM) | expression of Na+/K+ ATPase ([1]; 0.95 μM) | expression of ZO-1 ([1]; 0.95 μM) | time in which a cultured corneal endothelial cell sheet for transplantation can be produced ([1]; from the addition to culture medium) [h] | concentration showing the highest effect in the in vitro wound healing model [2] | ratio of wound width versus control ([2]; 0.95 μM, 6 hours after addition, Dunnett's test) | wound healing effect ([2]; 1.58 μM) | ratio of wound width versus control ([2]; compound (I), 24 hours after addition, Dunnett's test) | concentration showing a wound healing promoting effect ([2]; in vitro wound healing model, Example 9) [µM] | number of dead cells versus control (corneoscleral tissues; 0.95 μM in Optisol-GS, 2 weeks) | number of apoptotic cells versus control (corneoscleral tissues; 0.95 μM in Optisol-GS, 3 weeks) | number of dead cells versus control (corneoscleral tissues; 0.95 μM in Optisol-GS, 3 weeks)
C[C@@H](N)[C@H]1CC[C@H](C(=O)Nc2ccncc2)CC1 [Y-27632, reference compound] | partially uncovered with cells | found between cells in all | found between cells uniformly | showed a difference from the control for the first time | only the number of dead cells decreased significantly | – | – | – | – | – | – | – | – | – | – | – | –
C[C@@H](N)c1ccc(C(=O)Nc2ccnc3[nH]ccc23)cc1.Cl [compound (I), (R)-(+)-N-(1H-pyrrolo[2,3-b]pyridin-4-yl)-4-(1-aminoethyl)benzamide monohydrochloride] | – | – | – | – | – | cells were adhered to the whole surface of the sheet | found between cells in all | found between cells uniformly | 48 | about 0.95 μM | statistically significant difference from the control | significant effect, the effect was weaker than that of the 0.95 μM compound (I) | statistically significant difference even 24 hours later | 0.95 to 1.58 | decreased significantly | decreased significantly | decreased significantly

— US20120288482A1, “THERAPEUTIC AGENT (Y-39983) FOR CORNEAL ENDOTHELIAL DYSFUNCTION” (priority 2009, published 2012)
